Legend:
breast cancer = test: Docetaxel alone, several in-house proprietary studies; assay type: in vivo, human
Protocol: Docetaxel alone, in several in-house proprietary studies, gave overall response rates of 40 to 43% (in second line therapy at a dose of 100 mg/m^2), 48% (in first line therapy at a dose of 75 mg/m^2) and 61% (in first line therapy at a dose of 100 mg/m^2).

[1] = treatments based on taxoid derivatives, including docetaxel; cited from earlier work

For `CC(=O)O[C@@]12CO[C@@H]1C[C@H](O)[C@@]1(C)C(=O)[C@H](O)C3=C(C)[C@@H](OC(=O)[C@H](O)[C@@H](NC(=O)OC(C)(C)C)c4ccccc4)C[C@@](O)([C@@H](OC(=O)c4ccccc4)[C@H]21)C3(C)C` [docetaxel], the overall response rate (breast cancer; first line therapy, 75 mg/m^2) was 48%, the overall response rate (breast cancer; first line therapy, 100 mg/m^2) was 61% and the overall response rate (breast cancer; second line therapy, 100 mg/m^2) was 40 to 43%. For the same compound, the toxicities [1] was “myelosuppression, neutropenia, hypersensitivity, peripheral neuropathy, and fluid retention”.

From patent US6333348A, “Use of docetaxel for treating cancers” (Aventis Pharma S.A., priority 2000, dated 2001)
